For this test, the target named is T1, recombinant human GST-SYK (Homo sapiens, UniProt P43405).
T1 construct: purchased Carna Biosciences 08-176
The test can be described thus: Homogeneous Time-Resolved Fluorescence (HTRF) assay for the recombinant human Syk enzyme. Format: biochemical. To be noted: HTRF assay, recombinant human GST-SYK; IC50 given as class symbols; read-out: rhSYK Activity. The method, boiled down:
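Enzyme […], pH 7.5 Tris/tween/DTT buffer; 10 min preincubation with compound, RT. Start: 250 nM biotin-peptide, 25 μM ATP, 5 mM Mg; 45′ RT. Stop/detect: 40 mM EDTA, Eu-anti-pTyr, SA-APC; read 30 min later.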
(TR-FRET usually uses a lanthanide donor and a delayed reading to cut background.)
For `Cc1cc(Nc2nccc(C(F)(F)F)n2)cc(-c2cncc(CO)c2)c1` [Example 2.66, [5-(3-methyl-5-{[4-(trifluoromethyl)pyrimidin-2-yl]amino}phenyl)pyridin-3-yl]methanol], the IC50 was less than 0.1 µM.

Consider `CCOC(=O)c1cncc(-c2cc(C)cc(Nc3nccc(C(F)(F)F)n3)c2)c1` [Example 2.68, ethyl 5-(3-methyl-5-{[4-(trifluoromethyl)pyrimidin-2-yl]amino}phenyl)pyridine-3-carboxylate], for which the IC50 was less than 0.1 µM.

Take `Cc1cc(Nc2nccc(C(F)(F)F)n2)cc(-c2cncc(C(=O)O)c2)c1` [Example 2.69, 5-(3-methyl-5-{[4-(trifluoromethyl)pyrimidin-2-yl]amino}phenyl)pyridine-3-carboxylic acid]: the IC50 was less than 0.1 µM.

For `Cc1cc(Nc2nccc(C(F)(F)F)n2)cc(-c2ccc(N3CCCNC(=O)C3)nc2)c1` [Example 2.70, 4-[5-(3-methyl-5-{[4-(trifluoromethyl)pyrimidin-2-yl]amino}phenyl)pyridin-2-yl]-1,4-diazepan-2-one], the IC50 is less than 0.1 µM.

For `Cc1cc(Nc2nccc(C(F)(F)F)n2)cc(-c2ccc(C(=O)NC3CC3)nc2)c1` [Example 2.71, N-cyclopropyl-5-(3-methyl-5-{[4-(trifluoromethyl)pyrimidin-2-yl]amino}phenyl)pyridine-2-carboxamide], the IC50 was in the range of 0.1 to 1 µM.

`Cc1cc(Nc2nccc(C(F)(F)F)n2)cc(-c2cnc(N(C)C)c(C(=O)O)c2)c1` [Example 2.72, 2-(dimethylamino)-5-(3-methyl-5-{[4-(trifluoromethyl)pyrimidin-2-yl]amino}phenyl)pyridine-3-carboxylic acid]: the IC50 is less than 0.1 µM.

In the case of `O=C(O)c1cncc(-c2cccc(Nc3nccc(C(F)(F)F)n3)c2)c1` [Example 2.73, 5-(3-{[4-(trifluoromethyl)pyrimidin-2-yl]amino}phenyl)pyridine-3-carboxylic acid], the IC50 is less than 0.1 µM.

For `CNc1ncc(-c2cc(C)cc(Nc3nccc(C(F)(F)F)n3)c2)cc1C(=O)O` [Example 2.74, 2-(methylamino)-5-(3-methyl-5-{[4-(trifluoromethyl)pyrimidin-2-yl]amino}phenyl)pyridine-3-carboxylic acid], the IC50 was less than 0.1 µM.

Turning to `Cc1cc(Nc2nccc(C(F)(F)F)n2)cc(-c2cncc(C(C)(O)C(F)(F)F)c2)c1` (centres unmarked) [Example 2.75, 1,1,1-trifluoro-2-[5-(3-methyl-5-{[4-(trifluoromethyl)pyrimidin-2-yl]amino}phenyl)pyridin-3-yl]propan-2-ol], the IC50 is less than 0.1 µM.

As to `Cc1cc(Nc2nccc(C(F)(F)F)n2)cc(-c2ccc(C(C)(O)C(F)(F)F)nc2)c1` (centres unmarked) [Example 2.76, 1,1,1-trifluoro-2-[5-(3-methyl-5-{[4-(trifluoromethyl)pyrimidin-2-yl]amino}phenyl)pyridin-2-yl]propan-2-ol], the IC50 was 0.1 to 1 µM.

As for `CCOC(=O)CCc1ccc(-c2cccc(Nc3nccc(C(F)(F)F)n3)c2)cn1` [Example 2.77, ethyl 3-[5-(3-{[4-(trifluoromethyl)pyrimidin-2-yl]amino}phenyl)pyridin-2-yl]propanoate], the IC50 was 0.1 to 1 µM.

Take `O=C(O)CCc1cncc(-c2cccc(Nc3nccc(C(F)(F)F)n3)c2)c1` [Example 2.79, 3-[5-(3-{[4-(trifluoromethyl)pyrimidin-2-yl]amino}phenyl)pyridin-3-yl]propanoic acid]: the IC50 was less than 0.1 µM.

With `O=C(O)CCc1ccc(-c2cccc(Nc3nccc(C(F)(F)F)n3)c2)cn1` [Example 2.82, 3-[5-(3-{[4-(trifluoromethyl)pyrimidin-2-yl]amino}phenyl)pyridin-2-yl]propanoic acid], the IC50 is less than 0.1 µM.

On to `COc1ccnc(Nc2cc(C)cc(-c3ccc(CCC(=O)O)nc3)c2)n1` [Example 2.83, 3-(5-{3-[(4-methoxypyrimidin-2-yl)amino]-5-methylphenyl}pyridin-2-yl)propanoic acid], for which the IC50 was less than 0.1 µM.

For the compound `COc1ccnc(Nc2cc(C)cc(-c3cncc(CCC(=O)O)c3)c2)n1` [Example 2.84, 3-(5-{3-[(4-methoxypyrimidin-2-yl)amino]-5-methylphenyl}pyridin-3-yl)propanoic acid], the IC50 was less than 0.1 µM.

Consider `Cc1cc(Nc2nccc(C(F)(F)F)n2)cc(-c2cncc(CCC(=O)O)c2)c1` [Example 2.86, 3-[5-(3-methyl-5-{[4-(trifluoromethyl)pyrimidin-2-yl]amino}phenyl)pyridin-3-yl]propanoic acid], for which the IC50 is less than 0.1 µM.

Take `CCOC(=O)CCc1ccc(-c2cc(C)cc(Nc3nccc(C)n3)c2)cn1` [Example 2.87, ethyl 3-(5-{3-methyl-5-[(4-methylpyrimidin-2-yl)amino]phenyl}pyridin-2-yl)propanoate]: the IC50 lay in the range of 0.1 to 1 µM.

For `CCOC(=O)CCc1cncc(-c2cc(C)cc(Nc3nccc(C)n3)c2)c1` [Example 2.88, ethyl 3-(5-{3-methyl-5-[(4-methylpyrimidin-2-yl)amino]phenyl}pyridin-3-yl)propanoate], the IC50 was 0.1 to 1 µM.

With `Cc1cc(Nc2nccc(C)n2)cc(-c2ccc(CCC(=O)O)nc2)c1` [Example 2.89, 3-(5-{3-methyl-5-[(4-methylpyrimidin-2-yl)amino]phenyl}pyridin-2-yl)propanoic acid], the IC50 was less than 0.1 µM.

Consider `Cc1cc(Nc2nccc(C)n2)cc(-c2cncc(CCC(=O)O)c2)c1` [Example 2.90, 3-(5-{3-methyl-5-[(4-methylpyrimidin-2-yl)amino]phenyl}pyridin-3-yl)propanoic acid], for which the IC50 was in the range of 0.1 to 1 µM.

Take `CCOC(=O)CCc1cncc(-c2cc(C)cc(Nc3nccc(C4CC4)n3)c2)c1` [Example 2.100]: the IC50 is less than 0.1 µM.

As to `Cc1cc(Nc2nccc(C3CC3)n2)cc(-c2ccc(CCC(=O)O)nc2)c1` [Example 2.101, 3-(5-{3-[(4-cyclopropylpyrimidin-2-yl)amino]-5-methylphenyl}pyridin-2-yl)propanoic acid], the IC50 is less than 0.1 µM.

In the case of `Cc1cc(Nc2nccc(C3CC3)n2)cc(-c2cncc(CCC(=O)O)c2)c1` [Example 2.102, 3-(5-{3-[(4-cyclopropylpyrimidin-2-yl)amino]-5-methylphenyl}pyridin-3-yl)propanoic acid], the IC50 is less than 0.1 µM.

On to `CCOC(=O)CCc1ccc(-c2cc(C)cc(Nc3nccc(C4CC4)n3)c2)cn1` [Example 2.103, ethyl 3-(5-{3-[(4-cyclopropylpyrimidin-2-yl)amino]-5-methylphenyl}pyridin-2-yl)propanoate], for which the IC50 was less than 0.1 µM.

With `Cc1cc(Nc2nccc(C3CC3)n2)cc(-c2ccc(N[C@H]3CC[C@H](C(=O)O)CC3)nc2)c1` [Example 2.104, trans-4-[(5-{3-[(4-cyclopropylpyrimidin-2-yl)amino]-5-methylphenyl}pyridin-2-yl)amino]cyclohexanecarboxylic acid], the IC50 was less than 0.1 µM.

`COc1ccnc(Nc2cc(C)cc(-c3ccc(N[C@H]4CC[C@H](C(=O)O)CC4)nc3)c2)n1` [Example 2.105, trans-4-[(5-{3-[(4-methoxypyrimidin-2-yl)amino]-5-methylphenyl}pyridin-2-yl)amino]cyclohexanecarboxylic acid]: the IC50 was less than 0.1 µM.

As to `Cc1cc(Nc2nccc(C)n2)cc(-c2ccc(N[C@H]3CC[C@H](C(=O)O)CC3)nc2)c1` [Example 2.106, trans-4-[(5-{3-methyl-5-[(4-methylpyrimidin-2-yl)amino]phenyl}pyridin-2-yl)amino]cyclohexanecarboxylic acid], the IC50 is less than 0.1 µM.

Regarding `Cc1ccnc(Nc2cccc(-c3ccc(N[C@H]4CC[C@H](C(=O)O)CC4)nc3)c2)n1` [Example 2.107, trans-4-[(5-{3-[(4-methylpyrimidin-2-yl)amino]phenyl}pyridin-2-yl)amino]cyclohexanecarboxylic acid], the IC50 is less than 0.1 µM.

As for `Cc1cc(Nc2nccc(C(C)C)n2)cc(-c2ccc(N[C@H]3CC[C@H](C(=O)O)CC3)nc2)c1` [Example 2.108, trans-4-{[5-(3-methyl-5-{[4-(1-methylethyl)pyrimidin-2-yl]amino}phenyl)pyridin-2-yl]amino}cyclohexanecarboxylic acid], the IC50 is less than 0.1 µM.

As for `Cc1cc(Nc2nccc(C(F)(F)F)n2)cc(-c2ccc(NC(=O)CC#N)nc2)c1` [Example 2.109, 2-cyano-N-[5-(3-methyl-5-{[4-(trifluoromethyl)pyrimidin-2-yl]amino}phenyl)pyridin-2-yl]acetamide], the IC50 was less than 0.1 µM.

As to `Cc1cc(Nc2nccc(C(F)(F)F)n2)cc(-c2ccc(OC3CCC(C(=O)O)CC3)nc2)c1` (centres unmarked) [Example 2.110, 4-{[5-(3-methyl-5-{[4-(trifluoromethyl)pyrimidin-2-yl]amino}phenyl)pyridin-2-yl]oxy}cyclohexanecarboxylic acid], the IC50 was less than 0.1 µM.

Turning to `Cc1cc(Nc2nccc(C(F)(F)F)n2)cc(-c2ccc(OC3CCC(C(=O)O)CC3)nc2)c1` (centres unmarked) [Example 2.111, 4-{[5-(3-methyl-5-{[4-(trifluoromethyl)pyrimidin-2-yl]amino}phenyl)pyridin-2-yl]oxy}cyclohexanecarboxylic acid], the IC50 was less than 0.1 µM.

`Cc1cc(Nc2nccc(C(F)(F)F)n2)cc(-c2ccc(Oc3ccc(C(=O)O)cc3)nc2)c1` [Example 2.112, 4-{[5-(3-methyl-5-{[4-(trifluoromethyl)pyrimidin-2-yl]amino}phenyl)pyridin-2-yl]oxy}benzoic acid]: the IC50 is less than 0.1 µM.

In the case of `CC(=O)c1ccc(-c2cc(C)cc(Nc3nccc(C(F)(F)F)n3)c2)cn1` [Example 2.113, 1-[5-(3-methyl-5-{[4-(trifluoromethyl)pyrimidin-2-yl]amino}phenyl)pyridin-2-yl]ethanone], the IC50 is 0.1 to 1 µM.

`Cc1cc(Nc2nccc(C(F)(F)F)n2)cc(-c2ccc(C(C)(O)C(F)(F)F)nc2)c1` (centres unmarked) [Example 2.115, 1,1,1-trifluoro-2-[5-(3-methyl-5-{[4-(trifluoromethyl)pyrimidin-2-yl]amino}phenyl)pyridin-2-yl]propan-2-ol]: the IC50 was in the range of 0.1 to 1 µM.

Source of the values: US9376418B2, “Substituted pyridine spleen tyrosine kinase (SYK) inhibitors” (Merck Sharp & Dohme Corp., priority 2012, dated 2016).
